{
  "source": "patent US20020123480A1",
  "about": "“Methods and compositions utilizing 2'-5' oligoadenylates in the treatment of disorders of cell proliferation” (priority 2000, published 2002)",
  "key": {"[1]": {"test_system": "primary human cervical keratinocytes (PHK)", "experiment": "Growth of control primary human cervical keratinocytes, Coulter Counter cell count", "format": "cell-based", "details": "for IC50: Homo sapiens, Keratinocyte"}, "HeLa (HPV-18-positive)": {"test_system": "HeLa (HPV-18-positive)", "experiment": "Growth of HPV-positive HeLa cells, Coulter Counter cell count", "format": "cell-based, human", "details": "for IC50: Homo sapiens"}, "EiL8 (HPV-16-positive)": {"test_system": "EiL8 (HPV-16-positive)", "experiment": "Growth of HPV-positive EiL8 cells, Coulter Counter cell count", "format": "cell-based, human", "details": "for IC50: Homo sapiens, read-out: IC50 (concentration required to reduce cell growth by 50%)", "procedure": "(§1) The cells used in the first study included CK-1 (HPV-33-positive), EiL8 (HPV-16-positive), SiHa (HPV-16-positive) and HeLa (HPV-18-positive) and control primary human cervical keratinocytes (PHK). The cells were cultured in growth medium at 37° C., in 5% CO2. For these experiments, the cells were seeded in 96-well microtiter plates and after 24 hours of growth, serial dilutions of the test compounds were added. The cells were not fed after addition of the compounds. After three, five, seven and ten days, the cells were harvested by trypsinization and counted with a Coulter Counter. Duplicate wells were analyzed for each dilution and the results averaged. The number of cells recovered at each dilution was compared to the number of cells in untreated control wells and the concentration of test compound required to reduce cell growth by 50 percent (IC50) was determined."}, "CK-1 (HPV-33-positive)": {"test_system": "CK-1 (HPV-33-positive)", "experiment": "cells", "format": "cell-based", "details": "for IC50: Homo sapiens, read-out: IC50 (concentration required to reduce cell growth by 50%)"}, "SiHa (HPV-16-positive)": {"test_system": "SiHa (HPV-16-positive)", "experiment": "Growth of HPV-positive SiHa cells, Coulter Counter cell count", "format": "cell-based, human", "details": "for IC50: Homo sapiens"}, "[2]": {"test_system": "human papillomavirus (HPV)-positive cell lines", "details": "literature (Andrei 1998; Johnson 1999); cited from earlier work"}, "[3]": {"test_system": "human foreskin fibroblast (HFF) cells", "experiment": "Growth of human foreskin fibroblasts, neutral red uptake and counting of cells", "format": "cell-based", "procedure": "as §1\n(§2) The human foreskin fibroblast (HFF) cells were cultured in growth medium as described above, but assayed by neutral red uptake and counting of cells. The human embryonic lung fibroblast (HEL) cells were cultured in growth medium and assayed as described above by counting with a Coulter Counter. Daudi cells, an Epstein-Barr Virus (EBV)-positive Burkitt's lymphoma tumor cell line, were cultured in growth medium as described above and assayed by the neutral red uptake assay. […]"}, "[4]": {"test_system": "Daudi cells, an Epstein-Barr Virus (EBV)-positive Burkitt's lymphoma tumor cell line", "experiment": "Growth of Daudi cells, neutral red uptake assay", "format": "cell-based, human", "procedure": "as §1, §2"}, "[5]": {"test_system": "human papillomavirus (HPV)-positive cell lines", "experiment": "Growth of human papillomavirus (HPV)-positive cell lines in presence of test compounds", "format": "cell-based", "procedure": "See […] et at., Oncol Res. 10, 523-31 (1998) and J. A. Johnson et al., Antimicrob. Agents Chemother. 43, 1198-205 (1999). […] For these experiments, the cells were seeded in 96-well microtiter plates and after 24 hours of growth, serial dilutions of the test compounds were added. The cells were not fed after addition of the compounds. After three, five, seven and ten days, the cells were harvested by trypsinization and counted with a Coulter Counter. Duplicate wells were analyzed for each dilution and the results averaged."}, "[6]": {"details": "72 h, Day 3, read-out: IC50 (concentration required to reduce cell growth by 50%)"}, "[7]": {"details": "120 h, Day 5, read-out: IC50 (concentration required to reduce cell growth by 50%)"}, "[8]": {"details": "168 h, Day 7, read-out: IC50 (concentration required to reduce cell growth by 50%)"}, "[9]": {"details": "240 h, Day 10, read-out: IC50 (concentration required to reduce cell growth by 50%)"}},
  "note": "Read-outs that look alike come from different tables or passages of the source.",
  "data": [
    {"molecule": "Nc1ccn(C[C@@H](CO)OCP(=O)(O)O)c(=O)n1", "note": "[HPMPC, 3-hydroxy-2-phosphonylmethoxy-propyl cytosine, reference compound]", "values": [
      {"measurement": "IC50", "setting": "[1]; [6]", "value": 9.9, "unit": "µg/mL"},
      {"measurement": "IC50", "setting": "[1]; [7]", "value": 7, "unit": "µg/mL"},
      {"measurement": "IC50", "setting": "[1]; [8]", "value": 6.4, "unit": "µg/mL"},
      {"measurement": "IC50", "setting": "[1]; [9]", "value": 3.7, "unit": "µg/mL"},
      {"measurement": "IC50", "setting": "HeLa (HPV-18-positive); [6]", "value": 37, "unit": "µg/mL"},
      {"measurement": "IC50", "setting": "HeLa (HPV-18-positive); [7]", "value": 5.6, "unit": "µg/mL"},
      {"measurement": "IC50", "setting": "HeLa (HPV-18-positive); [8]", "value": 3.9, "unit": "µg/mL"},
      {"measurement": "IC50", "setting": "HeLa (HPV-18-positive); [9]", "value": 4.7, "unit": "µg/mL"},
      {"measurement": "IC50", "setting": "EiL8 (HPV-16-positive); 72 h, EiL8, Day 3", "value": 39, "unit": "µg/mL"},
      {"measurement": "IC50", "setting": "EiL8 (HPV-16-positive); 120 h, EiL8, Day 5", "value": 7.9, "unit": "µg/mL"},
      {"measurement": "IC50", "setting": "EiL8 (HPV-16-positive); 168 h, EiL8, Day 7", "value": 4.2, "unit": "µg/mL"},
      {"measurement": "IC50", "setting": "EiL8 (HPV-16-positive); 240 h, EiL8, Day 10", "value": 3.5, "unit": "µg/mL"},
      {"measurement": "IC50", "setting": "CK-1 (HPV-33-positive); CK1, 72 h, CK-1, Day 3", "value": 32, "unit": "µg/mL"},
      {"measurement": "IC50", "setting": "CK-1 (HPV-33-positive); CK1, 120 h, CK-1, Day 5", "value": 1.1, "unit": "µg/mL"},
      {"measurement": "IC50", "setting": "CK-1 (HPV-33-positive); CK1, 168 h, CK-1, Day 7", "value": 0.5, "unit": "µg/mL"},
      {"measurement": "IC50", "setting": "CK-1 (HPV-33-positive); CK1, 240 h, CK-1, Day 10", "value": 1.2, "unit": "µg/mL"},
      {"measurement": "IC50", "setting": "SiHa (HPV-16-positive); [6]", "value": 179, "unit": "µg/mL"},
      {"measurement": "IC50", "setting": "SiHa (HPV-16-positive); [7]", "value": 8.6, "unit": "µg/mL"},
      {"measurement": "IC50", "setting": "SiHa (HPV-16-positive); [8]", "value": 4.7, "unit": "µg/mL"},
      {"measurement": "IC50", "setting": "SiHa (HPV-16-positive); [9]", "value": 4, "unit": "µg/mL"},
      {"measurement": "inhibition of proliferation of HPV-transformed cells (in words)", "setting": "[2]", "value": "inhibit the proliferation"}
    ]},
    {"molecule": "2′,3′-cyclophosphateadenylyl(2′,5′)adenylyl-(2′,5′)adenosine [Cmpd. I]", "values": [
      {"measurement": "IC50 (concentration required to reduce cell growth by 50%)", "setting": "[1]; Day 3", "value": 110, "unit": "µg/mL"},
      {"measurement": "IC50 (concentration required to reduce cell growth by 50%)", "setting": "[1]; Day 5", "value": 168, "unit": "µg/mL"},
      {"measurement": "IC50 (concentration required to reduce cell growth by 50%)", "setting": "[1]; Day 7", "value": 262, "unit": "µg/mL"},
      {"measurement": "IC50 (concentration required to reduce cell growth by 50%)", "setting": "[1]; Day 10", "value": 280, "unit": "µg/mL"},
      {"measurement": "IC50 (concentration required to reduce cell growth by 50%)", "setting": "HeLa (HPV-18-positive); Day 3", "value": 66, "unit": "µg/mL"},
      {"measurement": "IC50 (concentration required to reduce cell growth by 50%)", "setting": "HeLa (HPV-18-positive); Day 5", "value": 62, "unit": "µg/mL"},
      {"measurement": "IC50 (concentration required to reduce cell growth by 50%)", "setting": "HeLa (HPV-18-positive); Day 7", "value": 90, "unit": "µg/mL"},
      {"measurement": "IC50 (concentration required to reduce cell growth by 50%)", "setting": "HeLa (HPV-18-positive); Day 10", "value": 160, "unit": "µg/mL"},
      {"measurement": "IC50 (concentration required to reduce cell growth by 50%)", "setting": "EiL8 (HPV-16-positive); EiL8, Day 3", "value": 63, "unit": "µg/mL"},
      {"measurement": "IC50 (concentration required to reduce cell growth by 50%)", "setting": "EiL8 (HPV-16-positive); EiL8, Day 5", "value": 68, "unit": "µg/mL"},
      {"measurement": "IC50 (concentration required to reduce cell growth by 50%)", "setting": "EiL8 (HPV-16-positive); EiL8, Day 7", "value": 103, "unit": "µg/mL"},
      {"measurement": "IC50 (concentration required to reduce cell growth by 50%)", "setting": "EiL8 (HPV-16-positive); EiL8, Day 10", "value": 180, "unit": "µg/mL"},
      {"measurement": "IC50 (concentration required to reduce cell growth by 50%)", "setting": "CK-1 (HPV-33-positive); CK-1, Day 3", "value": 100, "unit": "µg/mL"},
      {"measurement": "IC50 (concentration required to reduce cell growth by 50%)", "setting": "CK-1 (HPV-33-positive); CK-1, Day 5", "value": 46, "unit": "µg/mL"},
      {"measurement": "IC50 (concentration required to reduce cell growth by 50%)", "setting": "CK-1 (HPV-33-positive); CK-1, Day 7", "value": 104, "unit": "µg/mL"},
      {"measurement": "IC50 (concentration required to reduce cell growth by 50%)", "setting": "CK-1 (HPV-33-positive); CK-1, Day 10", "value": 303, "unit": "µg/mL"},
      {"measurement": "IC50 (concentration required to reduce cell growth by 50%)", "setting": "SiHa (HPV-16-positive); Day 3", "value": 150, "unit": "µg/mL"},
      {"measurement": "IC50 (concentration required to reduce cell growth by 50%)", "setting": "SiHa (HPV-16-positive); Day 5", "value": 108, "unit": "µg/mL"},
      {"measurement": "IC50 (concentration required to reduce cell growth by 50%)", "setting": "SiHa (HPV-16-positive); Day 7", "value": 141, "unit": "µg/mL"},
      {"measurement": "IC50 (concentration required to reduce cell growth by 50%)", "setting": "SiHa (HPV-16-positive); Day 10", "value": 193, "unit": "µg/mL"},
      {"measurement": "inhibition of growth (in words)", "setting": "[3]", "value": "inhibit the growth"},
      {"measurement": "inhibition of growth (in words)", "setting": "[4]", "value": "inhibit the growth"},
      {"measurement": "growth inhibition / anti-proliferative activity (in words)", "setting": "[5]", "value": "anti-proliferative activity"}
    ]},
    {"molecule": "Nc1nc2c(ncn2COCCO)c(=O)[nH]1", "note": "[acyclovir, reference compound]", "values": [
      {"measurement": "growth inhibition / anti-proliferative activity (in words)", "setting": "[5]", "value": "With the exception of acyclovir, growth inhibition was observed"}
    ]}
  ]
}
